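Values below derive from 48-hour exposures of cells grown in 96-well plates, with endpoints linearly interpolated between the two concentrations bracketing the appropriate inhibition level. TGI is the concentration that stops growth completely.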
Key:
Test in all cases: growth of human tumour cells (NCI), 48 h
RPMI-8226 leukemia = test system: RPMI-8226 leukemia
SF-268 CNS = test system: SF-268 CNS
COLO 205 colon = test system: COLO 205 colon
EKVX NSCLC = test system: EKVX NSCLC
SNB-19 CNS = test system: SNB-19 CNS
HT29 colon = test system: HT29 colon
SK-OV-3 ovarian = test system: SK-OV-3 ovarian
MCF7 breast = test system: MCF7 breast
CCRF-CEM leukemia = test system: CCRF-CEM leukemia
MALME-3M melanoma = test system: MALME-3M melanoma
HS 578T breast = test system: HS 578T breast
OVCAR-5 ovarian = test system: OVCAR-5 ovarian
MOLT-4 leukemia = test system: MOLT-4 leukemia
SR leukemia = test system: SR leukemia
K-562 leukemia = test system: K-562 leukemia
TK-10 renal = test system: TK-10 renal
U251 CNS = test system: U251 CNS
SK-MEL-5 melanoma = test system: SK-MEL-5 melanoma
PC-3 prostate = test system: PC-3 prostate
ACHN renal = test system: ACHN renal
IGROV1 ovarian = test system: IGROV1 ovarian
MDA-MB-231 breast = test system: MDA-MB-231 breast
MDA-N = test system: MDA-N
HL-60(TB) leukemia = test system: HL-60(TB) leukemia
786-0 renal = test system: 786-0 renal
KM12 colon = test system: KM12 colon
DU-145 prostate = test system: DU-145 prostate
SK-MEL-2 melanoma = test system: SK-MEL-2 melanoma
SK-MEL-28 melanoma = test system: SK-MEL-28 melanoma
NCI-H226 lung = test system: NCI-H226 lung
HOP-62 NSCLC = test system: HOP-62 NSCLC
NCI-H522 lung = test system: NCI-H522 lung
OVCAR-8 ovarian = test system: OVCAR-8 ovarian
LOX IMVI melanoma = test system: LOX IMVI melanoma
HCT-116 colon = test system: HCT-116 colon
NCI/ADR-RES ovarian = test system: NCI/ADR-RES ovarian
SW-620 colon = test system: SW-620 colon
HCT-15 colon = test system: HCT-15 colon
UO-31 renal = test system: UO-31 renal
SF-295 CNS = test system: SF-295 CNS
M14 melanoma = test system: M14 melanoma
HOP-92 NSCLC = test system: HOP-92 NSCLC
UACC-62 melanoma = test system: UACC-62 melanoma
SNB-75 CNS = test system: SNB-75 CNS
OVCAR-4 ovarian = test system: OVCAR-4 ovarian
OVCAR-3 ovarian = test system: OVCAR-3 ovarian
MDA-MB-435 = test system: MDA-MB-435
A549 NSCLC = test system: A549 NSCLC
A498 renal = test system: A498 renal
NCI-H23 lung = test system: NCI-H23 lung
SN12C renal = test system: SN12C renal

CN(C)CCNC(=O)c1cccc2c(NCC(=O)O)c3ccccc3nc12
TGI (RPMI-8226 leukemia): > 100 µM
TGI (SF-268 CNS): 33.4 µM
TGI (COLO 205 colon): > 100 µM
TGI (EKVX NSCLC): 56.4 µM
TGI (SNB-19 CNS): 72.1 µM
TGI (HT29 colon): 17.7 µM
TGI (SK-OV-3 ovarian): > 100 µM
TGI (MCF7 breast): 27.8 µM
TGI (CCRF-CEM leukemia): > 100 µM
TGI (MALME-3M melanoma): 35.9 µM
TGI (HS 578T breast): 50.7 µM
TGI (OVCAR-5 ovarian): > 100 µM
TGI (MOLT-4 leukemia): > 100 µM
TGI (SR leukemia): > 100 µM
TGI (K-562 leukemia): > 100 µM
TGI (TK-10 renal): > 100 µM
TGI (U251 CNS): > 100 µM
TGI (SK-MEL-5 melanoma): 67.3 µM
TGI (PC-3 prostate): 55.2 µM
TGI (ACHN renal): > 100 µM
TGI (IGROV1 ovarian): > 100 µM
TGI (MDA-MB-231 breast): 69.5 µM
TGI (MDA-N): > 100 µM
TGI (HL-60(TB) leukemia): > 100 µM
TGI (786-0 renal): 62.7 µM
TGI (KM12 colon): 60.7 µM
TGI (DU-145 prostate): > 100 µM
TGI (SK-MEL-2 melanoma): 37.4 µM
TGI (SK-MEL-28 melanoma): 52.6 µM
TGI (NCI-H226 lung): 30.9 µM
TGI (HOP-62 NSCLC): 82.5 µM
TGI (NCI-H522 lung): 35.3 µM
TGI (OVCAR-8 ovarian): 38.5 µM
TGI (LOX IMVI melanoma): > 100 µM
TGI (HCT-116 colon): 67.4 µM
TGI (NCI/ADR-RES ovarian): 48.2 µM
TGI (SW-620 colon): > 100 µM
TGI (HCT-15 colon): > 100 µM
TGI (UO-31 renal): > 100 µM
TGI (SF-295 CNS): 29.8 µM
TGI (M14 melanoma): 52.2 µM
TGI (HOP-92 NSCLC): > 100 µM
TGI (UACC-62 melanoma): 48.1 µM
TGI (SNB-75 CNS): 64 µM
TGI (OVCAR-4 ovarian): 30.9 µM
TGI (OVCAR-3 ovarian): > 100 µM
TGI (MDA-MB-435): 32.9 µM
TGI (A549 NSCLC): 53.5 µM
TGI (A498 renal): 57.9 µM
TGI (NCI-H23 lung): 45.1 µM
TGI (SN12C renal): > 100 µM

Reference: PubChem BioAssay (NCI)
